The results in this text go back to ChEMBL document CHEMBL4673251, “Fluorinated 2-Arylcyclopropan-1-amines - A new class of sigma receptor ligands” (Bioorg Med Chem, 2020).

Active and inactive are the calls of the source. The calls are words filed in the database; no cut-off is given here.

For data set [1], the target named is T1, Sigma non-opioid intracellular receptor 1 (Cavia porcellus, UniProt Q60492). In words: Displacement of [3H]-(+)-pentazocine from sigma1 receptor in guinea pig brain membrane incubated for 120 mins by solid scintillation counting method. The class given is cell membranes, Cell membrane. For orientation: In a radioligand displacement assay an active substance lowers the binding of a labelled ligand.
T1 sequence (Q60492 whole entry): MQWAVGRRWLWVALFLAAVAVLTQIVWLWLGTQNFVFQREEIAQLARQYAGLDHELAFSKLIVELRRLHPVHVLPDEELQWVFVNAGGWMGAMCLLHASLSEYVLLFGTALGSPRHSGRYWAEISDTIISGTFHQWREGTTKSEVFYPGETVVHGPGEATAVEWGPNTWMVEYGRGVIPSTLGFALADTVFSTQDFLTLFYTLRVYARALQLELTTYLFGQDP

Data set [2] addresses T2, Sigma intracellular receptor 2 (Rattus norvegicus, UniProt Q5U3Y7).
T2 sequence (Q5U3Y7 whole entry): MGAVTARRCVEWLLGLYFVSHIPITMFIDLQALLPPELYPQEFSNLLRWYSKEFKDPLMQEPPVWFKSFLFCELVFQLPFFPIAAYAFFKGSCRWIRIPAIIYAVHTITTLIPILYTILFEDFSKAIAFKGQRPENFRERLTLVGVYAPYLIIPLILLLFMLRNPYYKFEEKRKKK
The experiment in a line: Displacement of [3H]-di-o-tolylguanidine from Sigma 2 receptor in rat liver membrane incubated for 120 mins by solid scintillation counting method. It is filed as cell membranes, Cell membrane.

The species named for another data set is Sus scrofa. The experiment in a line: Displacement of [3H]-(+)-MK-801 from PCP binding site of NMDA receptor in pig brain cortex membranes after 120 mins by solid scintillation counting method. The note with it: Cell membrane.
Data set [3] addresses Sigma non-opioid intracellular receptor 1 (Cavia porcellus) (UniProt Q60492). The experiment in a line: Displacement of [3H]-(+)-pentazocine from sigma1 receptor in guinea pig brain membrane at 1 uM incubated for 120 mins by solid scintillation counting method. The class given is cell membranes. The note with it: Cell membrane.
Data set [4] concerns the target T3, Sigma intracellular receptor 2 (Rattus norvegicus) (UniProt Q5U3Y7).
T3 sequence (whole entry): T2 sequence (Q5U3Y7 whole entry)
The experiment in a line: Displacement of [3H]-di-o-tolylguanidine from Sigma 2 receptor in rat liver membrane at 1 uM incubated for 120 mins by solid scintillation counting method. The note with it: Cell membrane. The class given is cell membranes.

A short description of data set [5]: Dissociation constant, pKa of the compound. It is filed as physicochemical.
Data set [6] has as its target T1, Sigma non-opioid intracellular receptor 1. The experiment in a line: Displacement of [3H]-pentazocine from sigma1 receptor in guinea pig brain membrane incubated for 150 mins by scintillation counting method. It is filed as cell membranes, Cell membrane.
Data set [7] can be described thus: Displacement of [3H]-di-o-tolylguanidine from Sigma 2 receptor in guinea pig brain membrane incubated for 120 mins by scintillation counting method. The class given is cell membranes, Cavia porcellus, Cell membrane.

Chain of Sigma non-opioid intracellular receptor 1 (Cavia porcellus) (Q60492 whole entry): as the sequence (Q60492 whole entry) above

As a reminder, the Ki is a measure of affinity in units of concentration, obtained from inhibition or displacement. Lower therefore signals a stronger hold on the target. Consider `NC1CC1(F)c1ccc(S(F)(F)(F)(F)F)cc1` (trans isomer) [listing 1 of 2 here], for which the Ki in data set [1] was 660 nM.
With `NC1(c2ccccc2)CC1(F)c1ccccc1` (stereo in doubt; 24b) [listing 1 of 2 here], the figures for the inhibition constant Ki in data set [2] and in data set [1] were 7100 nM and 527 nM, respectively.
For orientation: inhibition means how much of the control response was suppressed. Molecule `Cc1ccc(C2(F)CC2N)cc1` (cis isomer) showed an inhibitory constant (Ki) in data set [2] of 3100 nM. The outcome in the data set filed under Sus scrofa was inactive. The inhibition in data set [3] was found to be 25%.
Regarding `COc1ccc(C2(F)CC2N)cc1OC` (stereo not given), the Ki in data set [2] came out at 3100 nM. Moreover, in the data set listed under Sus scrofa, the outcome was inactive. The molecule also came in with an inhibition in data set [3] of 24%.
In the case of `CNC1CC1(F)c1ccccc1` (racemic), the inhibition in data set [4] worked out at 19%; in data set [3] it was 0%. The outcome in the data set listed under Sus scrofa was inactive.
As usually defined, the pKa is the negative logarithm of the acid dissociation constant. Turning to `NC1CC1(F)c1ccc(C(F)(F)F)cc1` (stereo in doubt; 20b) [listing 1 of 2 here], the Ki in data set [2] came to 95 nM; in data set [1] it was 13 nM. Also, the pKa in data set [5] (read-out: pKa) is 7.
On to `COC(=O)C1(c2ccccc2)CC1CNC12CC3CC(CC(C3)C1)C2` (racemic; trans), for which the inhibitory constant (Ki) in data set [6] is 226 nM; in data set [7] it was 135 nM.
The molecule `COc1ccc(C2(F)CC2N)cc1` (stereo in doubt; 19b) [listing 1 of 2 here] had an inhibition in data set [4] of 33%. In addition, in the data set listed under Sus scrofa, the result was inactive.
`NC1CC1(F)c1cccc(F)c1` (trans isomer): the inhibition in data set [4] came to 31%; in data set [3], 0%. Also, the outcome in the data set filed under Sus scrofa was inactive.
`FC1(c2ccccc2)CC1NCc1ccccc1` (stereo not given): the inhibition in data set [4] and in data set [3] was 0% each time. In the data set filed under Sus scrofa, the outcome was inactive.
With `NC1(c2ccccc2)CC1(F)c1ccccc1` (stereo in doubt; 24b) [listing 2 of 2 here], the outcome in the data set listed under Sus scrofa was inactive.
As for `Fc1cccc(C2(F)CC2NCc2ccccc2)c1` (trans isomer), the inhibition in data set [4] and in data set [3] was 0% in each case. The result in the data set filed under Sus scrofa was inactive.
Consider `N[C@@H]1C[C@H]1c1ccccc1.N[C@H]1C[C@@H]1c1ccccc1` (racemic) [TRANYLCYPROMINE], for which the values for the Ki in data set [2] and in data set [1] were 6200 nM and 1800 nM, respectively.
For `NC1CC1(F)c1cccc(F)c1` (stereo in doubt; 27b), the results for the inhibition in data set [4] and in data set [3] were 16% and 0%, respectively. In addition, the outcome in the data set listed under Sus scrofa was inactive.
Take `COc1cccc(C2(F)CC2N)c1.Cl` (cis isomer): the pKa in data set [5] is given as 6.89.
As for `NCCC1CC1(F)c1ccccc1` (stereo not given), the inhibition was 5% in data set [4] and 24% in data set [3]. The outcome in the data set listed under Sus scrofa was inactive.
The like results for `NC1CC1(F)c1ccccc1` (cis isomer) were, in that order, 23%, 30% and “inactive”.
For `NC1CC1(F)c1ccc(F)cc1` (trans isomer) [listing 1 of 2 here], the Ki in data set [2] came to 1200 nM.
Turning to `CNC1CC1(F)c1ccccc1` (stereo in doubt; 11a), the inhibition in data set [4] and in data set [3] was 0% throughout. For the same molecule, in the data set listed under Sus scrofa, the outcome was inactive.
Consider `NC1CC1(F)c1ccc([N+](=O)[O-])cc1` (stereo in doubt; 25b), for which the inhibition in data set [4] was determined as 53%; in data set [3] it was 1%. The outcome in the data set listed under Sus scrofa was inactive.
Turning to `COc1cccc(C2(F)CC2N)c1` (trans isomer) [listing 1 of 2 here], the pKa in data set [5] (read-out: pKa) is 6.63.
In the case of `NC1(c2ccccc2)CC1(F)c1ccccc1` (trans isomer) [listing 1 of 2 here], the inhibitory constant (Ki) in data set [2] is 2300 nM; in data set [1], 399 nM.
As to `NC1CC1(F)c1ccc(C(F)(F)F)cc1` (stereo in doubt; 20b) [listing 2 of 2 here], the outcome in the data set filed under Sus scrofa was inactive.
As for `COc1cccc(C2(F)CC2N)c1` (trans isomer) [listing 2 of 2 here], in the data set filed under Sus scrofa, the result was inactive. The inhibition in data set [3] is 25%.
For `NC1CC1(F)c1ccc(F)cc1` (stereo in doubt; 17b) [listing 1 of 2 here], in the data set listed under Sus scrofa, the outcome was inactive.
For `COc1cccc(C2(F)CC2N)c1` (cis isomer), the outcome in the data set filed under Sus scrofa was inactive. The molecule further gave an inhibition in data set [3] of 14%.
In the case of `NC1CC1(F)c1ccc(Cl)cc1` (cis isomer), the Ki in data set [2] is 2000 nM; in data set [1] it was 1500 nM. In addition, in the data set listed under Sus scrofa, the outcome was inactive.
Regarding `NC1CC1(F)c1ccc([N+](=O)[O-])cc1` (trans isomer), the inhibition in data set [4] amounted to 0%; in data set [3] it was 13%. Further, the outcome in the data set filed under Sus scrofa was inactive.
`NC1CC1(F)c1ccc(F)cc1` (trans isomer) [listing 2 of 2 here]: the result in the data set filed under Sus scrofa was inactive. The inhibition in data set [3] is 27%.
`COc1ccc(C2(F)CC2N)cc1` (stereo in doubt; 19b) [listing 2 of 2 here]: in data set [1], the Ki turned out to be 366 nM. That is a sub-micromolar value.
Turning to `COc1ccc(C2(F)CC2N)cc1` (trans isomer) [listing 1 of 2 here], the pKa in data set [5] (read-out: pKa) turned out to be 7.5. Affinity in data set [1] was put at a Ki of 4.8 nM.
With `NC1CC1(F)c1cccc([N+](=O)[O-])c1` (trans isomer), the inhibition turned out to be 18% in data set [4] and 16% in data set [3]. Besides, in the data set listed under Sus scrofa, the outcome was inactive.
Turning to `NC1CC1(F)c1ccc(S(F)(F)(F)(F)F)cc1` (trans isomer) [listing 2 of 2 here], the outcome in the data set listed under Sus scrofa was inactive.
For `NC1CC1(F)c1ccc(S(F)(F)(F)(F)F)cc1` (cis isomer), the result in the data set listed under Sus scrofa was inactive. Also, the inhibition in data set [3] was 17%.
In data set [4], `COc1ccc(C2(F)CC2N)cc1` (trans isomer) [listing 2 of 2 here] gave an inhibition of 32%. Moreover, the outcome in the data set listed under Sus scrofa was inactive.
Turning to `NC1(c2ccccc2)CC1(F)c1ccccc1` (trans isomer) [listing 2 of 2 here], the result in the data set listed under Sus scrofa was inactive.
Consider `NC1CC1(F)c1ccc(F)cc1` (stereo in doubt; 17b) [listing 2 of 2 here], for which the Ki is 2400 nM in data set [2] and 428 nM in data set [1].
In the same order, the values of `NC1CC1(F)c1ccc(C(F)(F)F)cc1` (trans isomer) [listing 1 of 2 here] are 911 nM and 1900 nM.
Turning to `COC(=O)C1(c2ccccc2)CC1CNC12CC3CC(CC(C3)C1)C2` (racemic; cis), the Ki in data set [6] is 3 nM; in data set [7], 23 nM.
Turning to `NC1CC1(F)c1cccc([N+](=O)[O-])c1` (cis isomer), the inhibition is 49% in data set [4] and 13% in data set [3]. Also, the outcome in the data set listed under Sus scrofa was inactive.
In turn, `NCC1CC1(F)c1ccccc1` (stereo not given) displayed an inhibition in data set [4] of 24%. The result in the data set listed under Sus scrofa was inactive. The molecule further registered an inhibitory constant (Ki) in data set [1] of 429 nM.
For `NC1CC1(F)c1ccc(C(F)(F)F)cc1` (trans isomer) [listing 2 of 2 here], the result in the data set filed under Sus scrofa was inactive.
